From ChEMBL document CHEMBL1133879, “Nicotinamide N-oxides as CXCR2 antagonists” (Bioorg Med Chem Lett, 2001)

Tests used:
[1] = target: T1, Calcitonin receptor (Homo sapiens) (UniProt P30988); assay: Displacement of [125I]calcitonin from T-47D (human breast cancer) cell membrane expressing human calcitonin receptor; format: cell membranes; conditions: T47D; concentration not given here
T1 sequence (whole entry): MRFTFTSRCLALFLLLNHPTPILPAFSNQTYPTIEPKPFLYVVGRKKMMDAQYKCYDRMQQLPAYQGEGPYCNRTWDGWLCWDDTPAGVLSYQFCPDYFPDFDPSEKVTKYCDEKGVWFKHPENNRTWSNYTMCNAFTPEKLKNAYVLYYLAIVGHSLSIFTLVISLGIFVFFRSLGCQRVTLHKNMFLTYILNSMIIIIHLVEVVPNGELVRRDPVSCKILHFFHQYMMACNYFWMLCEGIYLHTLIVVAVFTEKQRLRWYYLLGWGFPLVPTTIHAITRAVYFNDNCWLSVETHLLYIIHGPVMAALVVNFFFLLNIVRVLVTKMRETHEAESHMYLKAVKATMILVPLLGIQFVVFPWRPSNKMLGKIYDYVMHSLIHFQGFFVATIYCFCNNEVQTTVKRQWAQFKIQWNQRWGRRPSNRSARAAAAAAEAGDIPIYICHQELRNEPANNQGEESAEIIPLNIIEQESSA

[2] = target: T2, Endothelin receptor type B (Homo sapiens) (UniProt P24530); assay: Displacement of [125I]endothelin from CHO cell membrane expressing human Endothelin B receptor; format: cell membranes; parameters: concentration or dose not given beside the values; conditions: concentration not given here
T2 sequence (whole entry): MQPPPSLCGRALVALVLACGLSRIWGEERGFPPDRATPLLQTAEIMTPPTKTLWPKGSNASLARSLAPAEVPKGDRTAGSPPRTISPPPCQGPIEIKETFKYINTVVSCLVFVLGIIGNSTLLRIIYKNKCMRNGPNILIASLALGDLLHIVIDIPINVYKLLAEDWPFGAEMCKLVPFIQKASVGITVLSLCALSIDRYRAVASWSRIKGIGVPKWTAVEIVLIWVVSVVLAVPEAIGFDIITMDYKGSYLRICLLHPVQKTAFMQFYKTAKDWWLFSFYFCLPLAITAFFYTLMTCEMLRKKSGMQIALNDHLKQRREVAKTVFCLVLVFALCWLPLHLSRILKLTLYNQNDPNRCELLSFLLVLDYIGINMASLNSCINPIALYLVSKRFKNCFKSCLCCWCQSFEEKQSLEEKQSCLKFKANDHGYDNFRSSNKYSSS

[3] = target: T3, C-X-C chemokine receptor type 2 (Homo sapiens, UniProt P25025); assay: Evaluated using an SPA assay with recombinant human [125I]IL-8 and membranes prepared from Sf9 cells expressing human CXCR2
T3 sequence (P25025 whole entry): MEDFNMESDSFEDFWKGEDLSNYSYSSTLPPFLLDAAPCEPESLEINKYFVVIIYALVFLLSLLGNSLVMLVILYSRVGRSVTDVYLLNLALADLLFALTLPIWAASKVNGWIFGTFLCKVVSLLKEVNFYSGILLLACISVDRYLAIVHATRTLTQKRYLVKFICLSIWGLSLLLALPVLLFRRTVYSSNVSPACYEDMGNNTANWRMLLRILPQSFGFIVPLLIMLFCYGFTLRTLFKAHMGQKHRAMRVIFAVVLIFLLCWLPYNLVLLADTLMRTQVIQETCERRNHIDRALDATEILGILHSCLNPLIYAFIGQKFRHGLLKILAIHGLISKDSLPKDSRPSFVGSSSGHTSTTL

[4] = target: T4, C-X-C chemokine receptor type 1 (Homo sapiens) (UniProt P25024); assay: Displacement of [125I]IL-8 from CHO cell membrane expressing human CXCR1 receptor at a concentration of 20 uM; format: cell membranes
T4 sequence (whole entry): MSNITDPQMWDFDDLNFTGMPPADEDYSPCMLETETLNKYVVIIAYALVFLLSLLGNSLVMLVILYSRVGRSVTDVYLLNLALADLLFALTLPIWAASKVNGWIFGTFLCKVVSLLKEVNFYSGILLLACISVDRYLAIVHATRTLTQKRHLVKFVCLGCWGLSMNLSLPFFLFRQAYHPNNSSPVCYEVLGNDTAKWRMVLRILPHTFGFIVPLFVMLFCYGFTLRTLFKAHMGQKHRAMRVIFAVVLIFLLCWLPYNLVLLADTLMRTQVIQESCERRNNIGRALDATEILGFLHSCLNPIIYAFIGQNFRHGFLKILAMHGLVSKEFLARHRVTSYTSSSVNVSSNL

[5] = target: T5, C-X-C chemokine receptor type 2 (Homo sapiens) (UniProt P25025); assay: Displacement of [125I]IL-8 from CHO cell membrane expressing human CXCR2 receptor at a concentration of 20 uM; format: cell membranes
T5 sequence (whole entry): T3 sequence (P25025 whole entry)

Homo sapiens [6] = organism: Homo sapiens; assay: Ability to block GRO-alpha driven human neutrophil chemotaxis; format: functional, organism-based
[7] = target: T6, Neuropeptide Y receptor type 1 (Homo sapiens) (UniProt P25929); assay: Displacement of [125I]-peptide YY (PYY) from SK-N-MC (human neuroblastoma) cell membrane expressing human Neuropeptide Y receptor type 1; parameters: concentration or dose not given beside the values; conditions: concentration not given here
T6 sequence (whole entry): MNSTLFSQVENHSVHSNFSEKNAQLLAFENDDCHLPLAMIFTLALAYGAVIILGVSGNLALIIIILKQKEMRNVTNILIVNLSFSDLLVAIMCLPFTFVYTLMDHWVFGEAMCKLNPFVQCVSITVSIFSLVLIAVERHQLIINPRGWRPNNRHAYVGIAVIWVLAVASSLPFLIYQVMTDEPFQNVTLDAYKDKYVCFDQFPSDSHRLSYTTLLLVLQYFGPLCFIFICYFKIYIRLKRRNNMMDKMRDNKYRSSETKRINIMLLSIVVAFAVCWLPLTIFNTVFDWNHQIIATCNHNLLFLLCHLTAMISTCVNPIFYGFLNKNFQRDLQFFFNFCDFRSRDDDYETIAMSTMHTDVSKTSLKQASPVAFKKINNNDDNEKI

[8] = target: T7, Gastrin/cholecystokinin type B receptor (Homo sapiens) (UniProt P32239); assay: Displacement of [3H]CCK-8 from NIH3T3 (mouse embryo cell membrane ) expressing human cholecystokinin CCKB receptor; format: cell membranes; parameters: concentration or dose not given beside the values; conditions: concentration not given here
T7 sequence (whole entry): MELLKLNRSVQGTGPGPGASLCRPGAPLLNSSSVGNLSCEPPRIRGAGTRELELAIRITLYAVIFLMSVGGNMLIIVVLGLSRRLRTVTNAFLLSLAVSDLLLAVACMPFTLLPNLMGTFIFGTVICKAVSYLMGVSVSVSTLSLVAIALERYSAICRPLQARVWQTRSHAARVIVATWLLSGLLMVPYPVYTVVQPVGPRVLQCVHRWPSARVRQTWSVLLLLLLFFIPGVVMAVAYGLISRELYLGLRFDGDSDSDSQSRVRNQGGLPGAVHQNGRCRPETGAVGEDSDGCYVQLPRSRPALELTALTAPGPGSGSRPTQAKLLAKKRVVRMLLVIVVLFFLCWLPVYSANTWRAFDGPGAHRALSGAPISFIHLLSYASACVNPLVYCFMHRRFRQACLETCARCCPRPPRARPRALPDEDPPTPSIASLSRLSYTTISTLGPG

Homo sapiens [9] = organism: Homo sapiens; assay: Functional selectivity was assessed in a neutrophil chemotaxis assay using N-formyl-methionyl-leucyl-phenylalanine (FMLP); format: organism-based
[10] = target: Somatostatin receptor (Mus musculus) (UniProt P30935+O08858+P30875+P30873+P49660); assay: Displacement of [125I]-TYR somatostatin from At-T-20 (mouse pituitary) cell membrane expressing somatostatin receptor; format: cell membranes; conditions: Pituitary gland cell; concentration not given here
[11] = target: T3, C-X-C chemokine receptor type 2; assay: Compound binding was evaluated using an SPA assay with recombinant human [125I]IL-8 and membranes prepared from Sf9 cells expressing human C-X-C chemokine receptor type 2; format: cell membranes

Chain of Somatostatin receptor (Mus musculus) (P30935 whole entry): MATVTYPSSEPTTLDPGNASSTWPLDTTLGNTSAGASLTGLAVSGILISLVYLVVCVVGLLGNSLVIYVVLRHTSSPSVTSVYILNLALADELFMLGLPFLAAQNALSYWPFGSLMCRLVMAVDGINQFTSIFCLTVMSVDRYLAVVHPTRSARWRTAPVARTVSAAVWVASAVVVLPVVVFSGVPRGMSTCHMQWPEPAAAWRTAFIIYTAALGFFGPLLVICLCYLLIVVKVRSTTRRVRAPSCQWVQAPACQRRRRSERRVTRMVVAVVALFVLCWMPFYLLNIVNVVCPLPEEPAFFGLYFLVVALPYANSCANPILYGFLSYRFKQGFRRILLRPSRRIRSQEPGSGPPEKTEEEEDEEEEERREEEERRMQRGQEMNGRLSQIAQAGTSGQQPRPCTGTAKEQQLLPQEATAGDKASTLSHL
Chain of Somatostatin receptor (Mus musculus) (O08858 whole entry): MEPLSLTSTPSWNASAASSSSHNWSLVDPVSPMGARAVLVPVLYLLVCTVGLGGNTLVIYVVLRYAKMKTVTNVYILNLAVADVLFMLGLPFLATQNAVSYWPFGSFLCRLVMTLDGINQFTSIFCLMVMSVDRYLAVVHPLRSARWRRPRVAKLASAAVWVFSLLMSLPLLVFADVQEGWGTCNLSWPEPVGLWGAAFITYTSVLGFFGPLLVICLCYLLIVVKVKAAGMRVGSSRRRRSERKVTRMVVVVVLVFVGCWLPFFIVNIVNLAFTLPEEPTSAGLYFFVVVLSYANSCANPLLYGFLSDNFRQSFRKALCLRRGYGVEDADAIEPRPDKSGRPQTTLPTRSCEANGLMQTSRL
Chain of Somatostatin receptor (Mus musculus) (P30875 whole entry): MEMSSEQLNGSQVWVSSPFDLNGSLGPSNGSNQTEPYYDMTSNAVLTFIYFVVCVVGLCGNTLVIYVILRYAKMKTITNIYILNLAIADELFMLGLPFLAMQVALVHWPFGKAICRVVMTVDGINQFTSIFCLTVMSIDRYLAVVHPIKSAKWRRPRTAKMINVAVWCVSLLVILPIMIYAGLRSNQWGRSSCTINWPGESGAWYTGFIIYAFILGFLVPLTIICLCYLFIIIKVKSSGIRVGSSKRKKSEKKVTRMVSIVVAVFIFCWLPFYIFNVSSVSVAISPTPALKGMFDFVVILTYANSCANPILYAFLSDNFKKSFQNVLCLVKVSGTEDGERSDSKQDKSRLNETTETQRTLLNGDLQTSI
Chain of Somatostatin receptor (Mus musculus) (P30873 whole entry): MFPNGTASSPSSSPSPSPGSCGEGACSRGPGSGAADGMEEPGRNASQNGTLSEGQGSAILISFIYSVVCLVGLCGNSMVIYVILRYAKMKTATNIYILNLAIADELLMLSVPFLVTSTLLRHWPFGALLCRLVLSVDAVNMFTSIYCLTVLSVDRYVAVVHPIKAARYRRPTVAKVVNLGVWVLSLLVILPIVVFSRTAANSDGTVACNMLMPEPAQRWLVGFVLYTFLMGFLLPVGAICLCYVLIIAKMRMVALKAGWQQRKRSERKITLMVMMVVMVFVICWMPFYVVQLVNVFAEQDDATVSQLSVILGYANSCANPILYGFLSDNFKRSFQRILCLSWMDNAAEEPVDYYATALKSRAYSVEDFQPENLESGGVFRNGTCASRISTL
Chain of Somatostatin receptor (Mus musculus) (P49660 with tags, fused parts or gaps): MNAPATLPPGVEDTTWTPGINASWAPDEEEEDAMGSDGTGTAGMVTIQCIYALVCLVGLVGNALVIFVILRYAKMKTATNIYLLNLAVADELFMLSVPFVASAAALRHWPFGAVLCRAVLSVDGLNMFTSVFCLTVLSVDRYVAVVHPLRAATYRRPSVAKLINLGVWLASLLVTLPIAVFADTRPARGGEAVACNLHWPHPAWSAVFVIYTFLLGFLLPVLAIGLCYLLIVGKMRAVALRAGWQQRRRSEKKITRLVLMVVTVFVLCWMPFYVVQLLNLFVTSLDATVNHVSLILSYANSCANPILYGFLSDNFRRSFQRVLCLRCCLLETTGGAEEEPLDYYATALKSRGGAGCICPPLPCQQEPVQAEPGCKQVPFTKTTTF

Row | SMILES | inhibition [1] [%] | inhibition [2] [%] | IC50 [3] [nM] | inhibition [4] [%] | inhibition [5] [%] | IC50 (Homo sapiens [6]) [nM] | inhibition [7] [%] | inhibition [8] [%] | IC50 (Homo sapiens [9]) [nM] | inhibition [10] [%] | IC50 [11] [nM]
1 | O=C(Nc1ccc(F)cc1)c1ccc(S(=O)(=O)C2CCCC2)[n+]([O-])c1 | 4 | -2 | 460 | 8 | 60 | 1900 | -1 | 1 |  |  | 
2 | O=C(Nc1ccccc1O)c1ccc(Cl)[n+]([O-])c1 |  |  | > 20000 |  |  | 4200 |  |  |  |  | 
3 | CC(C)S(=O)(=O)c1ccc(C(=O)Nc2ccc(F)cc2)c[n+]1[O-] |  |  | 400 |  |  | 2000 |  |  |  |  | 
4 | CCS(=O)(=O)c1ccc(C(=O)Nc2ccc(F)cc2)c[n+]1[O-] | 3 | 15 | 130 | 8 | 97 | 3300 | 41 | 14 | 13300 |  | 
5 | COc1ccc(NC(=O)c2ccc(Cl)[n+]([O-])c2)cc1 |  |  | > 20000 |  |  | > 20000 |  |  |  |  | 
6 | O=C(NCc1ccc(F)cc1)c1ccc(Cl)[n+]([O-])c1 |  |  | > 20000 |  |  | > 20000 |  |  |  |  | 
7 | O=C(NC1CCCCC1)c1ccc(Cl)[n+]([O-])c1 |  |  | > 20000 |  |  | > 20000 |  |  |  |  | 
8 | O=C(Nc1ccc(F)cc1)c1ccc(S(=O)(=O)c2ccccc2)[n+]([O-])c1 |  |  | 90 |  |  | > 20000 |  |  |  |  | 
9 | CS(=O)(=O)c1ccc(C(=O)Nc2ccc(F)cc2)c[n+]1[O-] |  | 8 | 130 | 73 | 97 | 2000 | 58 | 40 | 9600 | 60 | 
10 | O=C(O)c1cccc(S(=O)(=O)c2ccc(C(=O)Nc3ccc(F)cc3)c[n+]2[O-])c1 |  |  | 32 |  |  | > 20000 |  |  |  |  | 

These reach a lower IC50 (Homo sapiens [6]). Values come first.

Row | inhibition [1] [%] | inhibition [2] [%] | IC50 [3] [nM] | inhibition [4] [%] | inhibition [5] [%] | IC50 (Homo sapiens [6]) [nM] | inhibition [7] [%] | inhibition [8] [%] | IC50 (Homo sapiens [9]) [nM] | inhibition [10] [%] | IC50 [11] [nM] | SMILES
11 |  |  | > 20000 |  |  | 830 |  |  |  |  |  | O=C(NC(c1ccccc1)c1ccccc1)c1ccc(Cl)[n+]([O-])c1
12 |  | 8 | 280 | 9 | 77 | 1000 | 32 | 29 | 13000 | 38 |  | O=C(Nc1ccc(F)cc1)c1ccc(S(=O)(=O)Cc2ccccc2)[n+]([O-])c1
13 |  |  | > 20000 |  |  | 500 |  |  |  |  |  | O=C(Nc1ccc(I)cc1)c1ccc(Cl)[n+]([O-])c1
14 | -1 | 14 | 1000 | 68 | 85 | 1100 | 15 | 11 | > 40000 | -2 |  | O=C(Nc1ccc(F)cc1)c1ccc(Cl)[n+]([O-])c1
15 |  |  |  |  |  | 170 |  |  |  |  | 110 | CCN(CC)CCCCNc1nc2cc(Cl)c(Cl)cc2nc1-c1ccc(-c2cccs2)s1
16 |  |  |  |  |  | 10 |  |  |  |  |  | N#Cc1ccc(NC(=O)Nc2ccccc2Br)c2nn[nH]c12
17 |  |  | > 20000 |  |  | 1300 |  |  |  |  |  | CC(C)(C)c1ccc(NC(=O)c2ccc(Cl)[n+]([O-])c2)cc1
